{
  "source": "patent US8440617B2",
  "about": "“Hyperbaric treatment in wound healing” (The Trustees of the University of Pennsylvania, priority 2007, dated 2013)",
  "key": {"SDF-1α in wound tissue": {"test_system": "SDF-1α in wound tissue", "experiment": "Wound SDF-1α level (immunostaining)", "format": "in vivo, mouse", "conditions": "diabetic mice treated with insulin", "from_the_text": "For immunostaining, paraffin embedded serial sections (5 μm) were first underwent standard deparaffinizing and rehydration procedures and then probed with various Abs. To assess wound SDF-1α^+ cells, sections were double-stained with HTC-conjugated anti-SDF-1α and PE-conjugated different tissue-specific Abs (eBiosciences). To detect blood vessels in wound, sections were stained with HTC-conjugated anti-VEGFR2Ab. For examination of wound EPC recruitment in BM transplantation experiment, sections were double-stained with FITC-GFP and PE-VEGFR2 (BD Biosciences). Nuclei were counterstained with Hoescht dye. Masson's trichrome staining and H&E staining were performed using standard method and all reagents were from Sigma-Aldrich. Tissue sections were analyzed using fluorescence microscopy and ImageJ (NIH) software to quantitate fluorescent intensity. In trichrome stained slides, blue stain (collagen content) was also quantitatively analyzed by ImageJ."}, "[1]": {"test_system": "diabetic cutaneous wounds", "experiment": "Peripheral wound healing (wound closure) in diabetic mice", "format": "in vivo, mouse", "procedure": "Tie2-GFP, wild-type or chimeric FVB mice at 6-12 wk of age were treated with STZ (Sigma-Aldrich) to induce diabetes. Mice were rendered diabetic by i.p. administration of 60 mg/kg STZ in 50 mM sodium citrate, pH 4.5, daily for 5 d. Control mice were treated with daily injections of citrate buffer. Serum glucose was measured from the mouse tail vein using a glucometer. Once serum glucose reached 250 mg/dL, mice were followed with daily measurements for 1 wk prior to use in experiments. Serum glucose levels in STZ mice averaged 461 mg/dL with a range of 372-520 mg/dL, while control mice serum glucose mean level was 120 mg/dL with a range of 94-135 mg/dL. Wounds were induced on the ventral surface of the mouse thigh using a 4 mm punch biopsy. Full-thickness skin was removed, exposing the underlying muscle.\nInitial wound surface area was recorded and wounds were then followed serially with daily digital photographs using an Olympus digital camera. Photographs contained an internal scale to allow for standard calibration of measurements. Wound area was quantified using ImageJ software. Wound area was expressed as the percentage of original wound size. Wounds were followed for 6 d and mice were sacrificed at the conclusion of the experiment.\nEPCs play a key role in vasculogenesis and cutaneous tissue repair. It was hypothesized that increased numbers of EPCs in circulation, along with enhanced EPC homing to wounds, results in improved wound healing in diabetes. Diabetic wound closure rates were studied, in response to treatment with HBO and SDF-1α alone and in combination. Wounded diabetic mice underwent daily wound injections with SDF-1α, PBS, HBO, or SDF-1α+HBO treatments. […] This healing response was greater than the response to either treatment modality alone. In addition, histochemical analysis was conducted to examine blood vessel density (VEGFR2 staining), cellularity and stromagenesis (H&E staining), and extracellular constitution (trichrome staining) in wound tissues. […]"}},
  "note": "Entries after “also recorded” stand apart in the source; their conditions may differ.",
  "data": [
    {"substance": "insulin: human insulin (NPH), 6 U/kg twice/d i.p.", "values": [
      {"measurement": "impaired wound SDF-1α production", "setting": "SDF-1α in wound tissue", "result": "failed to improve"},
      {"measurement": "wound healing rate, insulin combined with HBO+SDF-1α therapy", "setting": "[1]; diabetic mice", "result": "did not further accelerate"},
      {"measurement": "wound healing rates", "setting": "[1]; diabetic mice treated with insulin 6 U/kg twice/d i.p.", "result": "failed to improve; also recorded: Little effect"}
    ]}
  ]
}
